According to ChEMBL document CHEMBL1133570, “Synthesis and in vitro and in vivo activity of (-)-(1R,5R,9R)- and (+)-(1S,5S,9S)-N-alkenyl-, -N-alkynyl-, and -N-cyanoalkyl-5, 9-dimethyl-2'-hydroxy-6,7-benzomorphan homologues” (J Med Chem, 2000):
Active and inactive are the calls of the source. Unless noted, the rule behind the calls is not given here.

Tests used:
[1] = biological target: T1, Opioid receptor (Mus musculus) (UniProt P42866+P32300+P33534); assay: Evaluated in vivo for the antinociceptive and opioid antagonist assays in ICR male mice, Tail-Flick agonist and antagonist tests was performed; type: functional, organism-based
[2] = biological target: Kappa-type opioid receptor (Mus musculus, UniProt P33534); assay: (§1) Ki value determined against Opioid receptor kappa 1 using [3H]U69, 593 at the Kd concentration 0.95 nM
[3] = biological target: Delta-type opioid receptor (Mus musculus, UniProt P32300); assay: Ki value determined against Opioid receptor delta 1 using [3H]DPDPE at the Kd concentration 2.1 nM
Mu-type opioid receptor = Mu-type opioid receptor (Mus musculus, UniProt P42866); assay: (§2) Ki value determined against Opioid receptor mu 1 using [3H]DAMGO at the Kd concentration 0.57 nM
[4] = biological target: Sigma non-opioid intracellular receptor 1 (Mus musculus, UniProt O55242); assay: Ki value determined against Sigma opioid receptor type 1 using [(+)-[3H]pentazocine at the Kd concentration 2nM
Sigma 2 receptor [5] = assay: Ki value determined against Sigma opioid receptor type 2 using [3H]DTG (5 nM) with 1 uM dextrallorphan to mask sigma-1 binding; design: species or system Mus musculus
[6] = biological target: T1, Opioid receptor (Mus musculus); assay: Hot plate test was carried out for mouse injected sc and the antinociceptive activity was determined from the response; type: functional, organism-based
[7] = biological target: T1, Opioid receptor (Mus musculus); assay: Using the PPQ (paraphenylquinone) assay selective opioid receptor agonist activity was established in mice; type: functional
[8] = (§3) Tail-flick vs. morphine ED80(morphine sulfate substituted completely) was studied to determine selective in vivo agonist and antagonist activity.;IA, Inactive less than 70% of mice affected at 30 mg/kg.; type: functional, organism-based; design: dose 30 mg/kg
[9] = biological target: Mu-type opioid receptor (Mus musculus) (UniProt P42866); assay: as §2
[10] = biological target: Sigma non-opioid intracellular receptor 1 (Rattus norvegicus, UniProt Q9R0C9); assay: Ki value determined against Sigma opioid receptor type 1 using [(+)-[3H]pentazocine at the Kd concentration 2 nM.
[11] = biological target: T1, Opioid receptor (Mus musculus); assay: Antinociceptive activity was determined in vivo in all opioid type tests; type: organism-based
[12] = biological target: T1, Opioid receptor (Mus musculus); assay: Evaluated in vivo for the antinociceptive and opioid antagonist assays in ICR male mice, Tail-Flick agonist and antagonist tests was performed; IA, Inactive less than 70% of mice affected at 30 mg/kg.; type: functional, organism-based; design: dose 30 mg/kg
[13] = biological target: T1, Opioid receptor (Mus musculus); assay: Hot plate test was carried out for mouse injected sc and the antinociceptive activity was determined from the response;IA, Inactive less than 70% of mice affected at 30 mg/kg.; type: functional, organism-based; design: dose 30 mg/kg
[14] = (§4) Tail-flick vs. morphine ED80(morphine sulfate substituted completely) was studied to determine selective in vivo agonist and antagonist activity.; type: functional
[15] = biological target: T1, Opioid receptor (Mus musculus); assay: as §4; type: functional, organism-based
[16] = biological target: T1, Opioid receptor (Mus musculus); assay: Using the PPQ (paraphenylquinone) assay selective opioid receptor agonist activity was established in mice;IA, Inactive less than 70% of mice affected at 30 mg/kg.; type: functional, organism-based; design: dose 30 mg/kg
[17] = biological target: Kappa-type opioid receptor (Mus musculus) (UniProt P33534); assay: as §1
Sigma 2 receptor [18] = assay: Ki value determined against Sigma opioid receptor type 2 using [3H]DTG(5nM) with 1 uM dextrallorphan to mask sigma1 binding; design: species or system Mus musculus
[19] = biological target: T1, Opioid receptor (Mus musculus)
Description: Antinociceptive activity was determined in vivo in all opioid type tests, expressed as AD50 administered subcutaneously

Mus musculus = assay: as §3; type: functional, organism-based; design: dose 30 mg/kg
[20] = biological target: T1, Opioid receptor (Mus musculus); details: Tail
Description: (§5) Narcotic antagonist activity in the mouse tail-flick versus morphine assay

[21] = biological target: T1, Opioid receptor (Mus musculus); details: Tail; remark: listed apart in the source
Description: as §5

[22] = biological target: Delta-type opioid receptor (Homo sapiens) (UniProt P41143); assay: Antinociceptive activity was determined at Opioid receptor delta 1 using DPDPE; type: functional
[23] = biological target: Delta-type opioid receptor (Homo sapiens) (UniProt P41143); assay: Antinociceptive activity was determined at Opioid receptor delta 1 versus ED80 of U69,593; type: functional
[24] = biological target: Delta-type opioid receptor (Homo sapiens) (UniProt P41143); assay: Antinociceptive activity was determined at Opioid receptor delta 1 versus ED80 of morphine; type: functional

Chain of Delta-type opioid receptor (P32300 whole entry): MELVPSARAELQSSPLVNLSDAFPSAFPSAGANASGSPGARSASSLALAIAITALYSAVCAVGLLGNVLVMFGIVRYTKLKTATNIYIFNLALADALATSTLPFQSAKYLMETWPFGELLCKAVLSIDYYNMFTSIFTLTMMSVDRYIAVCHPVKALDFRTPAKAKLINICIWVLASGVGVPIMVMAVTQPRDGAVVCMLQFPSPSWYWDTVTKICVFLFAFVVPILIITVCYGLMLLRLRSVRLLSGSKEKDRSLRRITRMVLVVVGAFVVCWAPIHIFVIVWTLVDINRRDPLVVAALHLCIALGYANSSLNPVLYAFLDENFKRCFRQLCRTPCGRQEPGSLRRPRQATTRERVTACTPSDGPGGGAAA
T1 sequence (P32300 whole entry, looked up): as the sequence (P32300 whole entry) above
T1 sequence (P33534 whole entry, looked up): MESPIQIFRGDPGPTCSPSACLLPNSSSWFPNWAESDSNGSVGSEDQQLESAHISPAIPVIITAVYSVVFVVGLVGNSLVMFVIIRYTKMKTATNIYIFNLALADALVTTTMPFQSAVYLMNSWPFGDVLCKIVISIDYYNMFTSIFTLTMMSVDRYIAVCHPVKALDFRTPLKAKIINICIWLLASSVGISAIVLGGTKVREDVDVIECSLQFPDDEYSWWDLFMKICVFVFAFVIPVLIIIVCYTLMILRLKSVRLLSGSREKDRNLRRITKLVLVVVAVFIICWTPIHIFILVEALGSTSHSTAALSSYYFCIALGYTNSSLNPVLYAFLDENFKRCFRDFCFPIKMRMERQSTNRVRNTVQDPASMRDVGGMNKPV
T1 sequence (P42866 whole entry, looked up): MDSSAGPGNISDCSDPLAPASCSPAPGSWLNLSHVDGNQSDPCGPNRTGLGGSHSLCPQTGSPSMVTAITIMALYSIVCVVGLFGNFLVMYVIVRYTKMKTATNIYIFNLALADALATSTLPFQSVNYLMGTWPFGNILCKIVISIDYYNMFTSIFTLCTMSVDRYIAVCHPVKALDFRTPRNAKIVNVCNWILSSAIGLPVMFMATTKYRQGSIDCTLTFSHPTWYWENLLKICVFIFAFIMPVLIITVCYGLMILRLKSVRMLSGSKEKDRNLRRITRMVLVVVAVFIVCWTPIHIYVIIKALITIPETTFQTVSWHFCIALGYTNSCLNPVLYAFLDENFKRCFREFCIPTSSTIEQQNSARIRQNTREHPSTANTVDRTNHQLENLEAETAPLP
Chain of Kappa-type opioid receptor (Mus musculus) (P33534 whole entry): as the sequence (P33534 whole entry, looked up) above
Chain of Kappa-type opioid receptor (P33534 whole entry): as the sequence (P33534 whole entry, looked up) above
Chain of Sigma non-opioid intracellular receptor 1 (Mus musculus, UniProt O55242) (O55242 whole entry): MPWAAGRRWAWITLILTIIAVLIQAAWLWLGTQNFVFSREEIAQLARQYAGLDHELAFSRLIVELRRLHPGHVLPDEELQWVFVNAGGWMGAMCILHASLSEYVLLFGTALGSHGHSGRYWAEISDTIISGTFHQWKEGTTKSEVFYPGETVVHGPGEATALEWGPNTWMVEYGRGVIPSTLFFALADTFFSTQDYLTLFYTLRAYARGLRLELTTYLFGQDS
Chain of Sigma non-opioid intracellular receptor 1 (Rattus norvegicus, UniProt Q9R0C9) (Q9R0C9 whole entry): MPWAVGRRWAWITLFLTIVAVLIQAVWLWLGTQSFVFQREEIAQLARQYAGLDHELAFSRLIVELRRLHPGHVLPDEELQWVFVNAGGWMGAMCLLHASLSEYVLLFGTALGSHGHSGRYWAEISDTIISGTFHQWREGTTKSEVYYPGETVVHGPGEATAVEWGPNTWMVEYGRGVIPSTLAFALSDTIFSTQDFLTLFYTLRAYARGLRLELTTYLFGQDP
Chain of Mu-type opioid receptor (P42866 whole entry): as the sequence (P42866 whole entry, looked up) above
Chain of Mu-type opioid receptor (Mus musculus) (P42866 whole entry): as the sequence (P42866 whole entry, looked up) above
Chain of Delta-type opioid receptor (Homo sapiens) (P41143 whole entry): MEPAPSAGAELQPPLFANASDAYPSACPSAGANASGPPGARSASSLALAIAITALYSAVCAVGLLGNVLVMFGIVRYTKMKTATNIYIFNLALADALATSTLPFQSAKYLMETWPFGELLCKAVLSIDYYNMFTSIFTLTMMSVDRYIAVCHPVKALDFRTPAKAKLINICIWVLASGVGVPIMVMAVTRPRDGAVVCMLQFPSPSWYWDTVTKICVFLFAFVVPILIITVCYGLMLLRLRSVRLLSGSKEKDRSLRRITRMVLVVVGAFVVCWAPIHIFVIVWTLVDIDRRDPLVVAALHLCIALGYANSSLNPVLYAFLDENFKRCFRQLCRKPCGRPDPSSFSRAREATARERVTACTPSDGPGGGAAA

| SMILES | Ki [2] | Ki [3] | Ki (Mu-type opioid receptor) | Ki [4] | Ki (Sigma 2 receptor [5]) | ED50 [7] | Ki [10] | other results |
| --- | --- | --- | --- | --- | --- | --- | --- | --- |
| C#CCCN1CC[C@]2(C)c3cc(O)ccc3CC1[C@@H]2C | 1.4 nM | 10 nM | 4.6 nM | 5900 nM | 2200 nM | 0.04 mg/kg |  | ED50 [1]: 0.05 mg/kg; ED50 [6]: 0.1 mg/kg; ED50 [8]: inactive |
| CC1C2Cc3ccc(O)cc3[C@@]1(C)CCN2CCCC#N (stereo partly drawn) | 240 nM |  |  |  |  |  | 20 nM | inhibition [9]: 9% |
| COC(=O)/C=C/C(=O)N[C@@H]1CC[C@@]2(O)[C@H]3Cc4ccc(O)c5c4[C@@]2(CCN3CC2CC2)[C@H]1O5 |  |  |  |  |  |  |  | AD50 [11]: 0.6 µg brain-1 |
| C=CCN1CC[C@]2(C)c3cc(O)ccc3CC1[C@@H]2C | 0.3 nM | 5.5 nM | 0.9 nM | 11000 nM | 3200 nM | 0.1 mg/kg |  | ED50 [12]: inactive; ED50 [13]: inactive; ED50 [14]: 0.2 mg/kg |
| CC1C2Cc3ccc(O)cc3[C@@]1(C)CCN2CCCCCC#N (stereo partly drawn) | 500 nM |  |  |  |  |  | 33 nM | inhibition [9]: 12.4% |
| CC1C2Cc3ccc(O)cc3[C@@]1(C)CCN2CCCCC#N (stereo partly drawn) | 1300 nM |  | 4800 nM |  |  |  | 36 nM |  |
| C[C@H]1C2Cc3ccc(O)cc3[C@@]1(C)CCN2CCCCCC#N | 11 nM | 220 nM | 15 nM | 640 nM | 380 nM |  |  | ED50 [12]: inactive; ED50 [15]: 10 mg/kg; ED50 [13]: inactive; ED50 [16]: inactive |
| CC1C2Cc3ccc(O)cc3[C@@]1(C)CCN2CCCCCCC#N (stereo partly drawn) |  |  |  |  |  |  | 16 nM | inhibition [17]: 17.7%; inhibition [9]: 37% |
| C[C@H]1C2Cc3ccc(O)cc3[C@@]1(C)CCN2CC#N | 70 nM | 590 nM | 100 nM | 13000 nM | 19000 nM | 1.5 mg/kg |  | ED50 [1]: 12 mg/kg; ED50 [6]: 9 mg/kg |
| CC1C2Cc3ccc(O)cc3[C@@]1(C)CCN2CC#N (stereo partly drawn) |  |  |  |  |  |  | 11000 nM | inhibition [17]: 20.4%; inhibition [9]: 18.6% |
| C=CCCN1CC[C@]2(C)c3cc(O)ccc3CC1[C@@H]2C | 1.3 nM | 21 nM | 2.1 nM | 1600 nM | 620 nM | 0.3 mg/kg |  | ED50 [1]: 0.05 mg/kg; ED50 [15]: 4 mg/kg; ED50 [6]: 0.8 mg/kg |
| CC#CCN1CC[C@]2(C)c3cc(O)ccc3CC1[C@@H]2C (stereo in doubt; 26) [listing 1 of 2 here] |  |  |  | 160 nM |  |  |  | Ki (Sigma 2 receptor [18]): 12 µM |
| C=CCCCN1CC[C@]2(C)c3cc(O)ccc3CC1C2C (stereo partly drawn) | 400 nM |  |  |  |  |  | 2.1 nM | inhibition [9]: 20.5% |
| Oc1ccc2c3c1O[C@H]1c4[nH]c5c(c4C[C@@]4(O)[C@@H](C2)N(CC2CC2)CC[C@]314)C[C@@]1(O)[C@H]2Cc3ccc(O)c4c3[C@@]1(CCN2CC1CC1)[C@H]5O4 |  |  |  |  |  |  |  | AD50 [19]: 0.3 mg/kg |
| C[C@H]1C2Cc3ccc(O)cc3[C@@]1(C)CCN2CCCC#N | 0.4 nM | 23 nM | 5.8 nM | 1700 nM | 8400 nM | 0.01 mg/kg |  | ED50 [1]: 0.4 mg/kg; ED50 [6]: 1 mg/kg |
| CC#CCN1CC[C@]2(C)c3cc(O)ccc3CC1[C@@H]2C (stereo in doubt; 12) [listing 1 of 2 here] |  |  |  |  |  | 0.1 mg/kg |  | ED50 [12]: inactive; ED50 [13]: inactive |

| SMILES | Ki [2] | Ki [3] | Ki (Mu-type opioid receptor) | Ki [4] | Ki (Sigma 2 receptor [5]) | ED50 [7] | Ki [10] | other results |
| --- | --- | --- | --- | --- | --- | --- | --- | --- |
| C[C@H]1C2Cc3ccc(O)cc3[C@@]1(C)CCN2CCCCCCC#N | 38 nM | 350 nM | 90 nM | 80 nM | 150 nM | 9 mg/kg |  | ED50 [12]: inactive; ED50 [13]: inactive; ED50 (Mus musculus): inactive |
| C#CCCN1CC[C@]2(C)c3cc(O)ccc3CC1C2C (stereo partly drawn) |  |  |  |  |  |  | 110 nM |  |
| C[C@H]1C2Cc3ccc(O)cc3[C@@]1(C)CCN2CCC#N | 0.4 nM | 9.8 nM | 4.2 nM | 9800 nM | 51000 nM | 0.05 mg/kg |  | ED50 [1]: 0.3 mg/kg; ED50 [6]: 0.1 mg/kg |
| CC#CCN1CC[C@]2(C)c3cc(O)ccc3CC1[C@@H]2C (stereo in doubt; 26) [listing 2 of 2 here] |  |  |  |  |  |  |  | AD50 [20]: 6.7 mg/kg |
| C=CCCCCN1CC[C@]2(C)c3cc(O)ccc3CC1C2C (stereo partly drawn) |  |  | 980 nM |  |  |  | 1.1 nM |  |
| C=CCCN1CC[C@]2(C)c3cc(O)ccc3CC1C2C (stereo partly drawn) |  |  |  |  |  |  | 15 nM | inhibition [17]: 35.5%; inhibition [9]: 41% |
| C[C@H]1C2Cc3ccc(O)cc3[C@@]1(C)CCN2CCCCC#N | 6.9 nM | 160 nM | 18 nM | 490 nM | 2800 nM | 3 mg/kg |  | ED50 [1]: 15 mg/kg |
| CC#CCN1CC[C@]2(C)c3cc(O)ccc3CC1[C@@H]2C (stereo in doubt; 12) [listing 2 of 2 here] | 3.9 nM | 60 nM | 0.5 nM | 9800 nM | 4400 nM |  |  | ED50 [14]: 0.3 mg/kg |
| C=CCN1CC[C@]2(C)c3cc(O)ccc3CC1C2C (stereo partly drawn) |  |  |  |  |  |  | 300 nM | inhibition [17]: 31%; inhibition [9]: 28.5%; AD50 [21]: 13.2 mg/kg |
| C#CCCCN1CC[C@]2(C)c3cc(O)ccc3CC1C2C (stereo partly drawn) |  |  |  |  |  |  | 18 nM |  |
| C=CCCCCN1CC[C@]2(C)c3cc(O)ccc3CC1[C@@H]2C | 5.8 nM | 56 nM | 10 nM | 22 nM | 80 nM | 0.8 mg/kg |  | ED50 [1]: 0.3 mg/kg; ED50 [6]: 0.6 mg/kg; ED50 [8]: inactive |
| C#CCCCN1CC[C@]2(C)c3cc(O)ccc3CC1[C@@H]2C | 11 nM | 140 nM | 18 nM | 200 nM | 440 nM | 12 mg/kg |  | ED50 [12]: inactive; AD50 [22]: 0.05 mg/kg; AD50 [23]: 1.2 mg/kg; AD50 [24]: 20 mg/kg; ED50 [13]: inactive; ED50 [14]: 2 mg/kg |
| Oc1ccc2c3c1O[C@H]1c4[nH]c5ccccc5c4C[C@@]4(O)[C@@H](C2)N(CC2CC2)CC[C@]314 |  |  |  |  |  |  |  | AD50 [19]: 3.1 mg/kg |
| C=CCCCN1CC[C@]2(C)c3cc(O)ccc3CC1[C@@H]2C | 5.9 nM | 60 nM | 15 nM | 50 nM | 180 nM | 1.4 mg/kg |  | ED50 [12]: inactive; ED50 [13]: inactive; ED50 [14]: 6 mg/kg |
| CC1C2Cc3ccc(O)cc3[C@@]1(C)CCN2CCC#N (stereo partly drawn) | 600 nM |  |  |  |  |  | 250 nM | inhibition [9]: 11.6% |
